Target: T1, DCAF1 WD40 domain (residues 1077-1390) (Homo sapiens, UniProt Q9Y4B6)
T1 construct: DCAF1 WD40 domain (residues 1077-1390)
Assay: DCAF1 binding assay by SPR (Biacore 8K+), DCAF1-3 KD
Conditions: 25 °C, read-out: DCAF1-3 SPR (KD)

T1 sequence (Q9Y4B6 1077-1390): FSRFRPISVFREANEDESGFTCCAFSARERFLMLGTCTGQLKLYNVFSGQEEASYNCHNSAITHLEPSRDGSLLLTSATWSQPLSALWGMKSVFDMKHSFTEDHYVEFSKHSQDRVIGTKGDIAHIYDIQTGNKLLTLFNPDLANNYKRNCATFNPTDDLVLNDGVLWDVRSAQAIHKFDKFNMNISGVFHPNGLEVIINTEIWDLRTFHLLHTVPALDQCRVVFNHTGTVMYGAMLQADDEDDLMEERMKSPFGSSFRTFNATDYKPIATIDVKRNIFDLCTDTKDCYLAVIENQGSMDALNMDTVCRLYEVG

Compound | Kd
c1cc(N2CCCCC2)cc(N[C@@H]2CCC[C@@H](C3CCCCC3)C2)n1 [I-752] | 10 to 100 µM
c1ccc([C@@H]2CCC[C@H](Nc3cc(N4CCCCC4)ccn3)C2)cc1 [I-753] | 10 to 100 µM
c1ccc([C@H]2CCC[C@@H](Nc3cc(N4CCCCC4)ccn3)C2)cc1 [I-754] | 10 to 100 µM
c1ccc([C@H]2CCC[C@H](Nc3cc(N4CCCCC4)ccn3)C2)cc1 [I-755] | < 10 µM
C=CC(=O)NCCCCC1CCN(c2ccnc(N[C@@H]3CCCN(c4cccc(F)c4)C3)c2)CC1 [I-756] | 10 to 100 µM
COC(=O)C[C@H](NC(=O)c1cn[nH]c1-c1ccccc1F)c1cccc(Cl)c1 [I-757] | > 200 µM
CO/N=C(/c1ccccc1)c1[nH]cc(C(=O)N[C@@H](CC(N)=O)c2cccc(Cl)c2)c1-c1c(F)ccc(F)c1C [I-758] | < 10 µM
Cc1c(F)ccc(F)c1-c1c(C(=O)N[C@@H](CC(N)=O)c2cccc(Cl)c2)c[nH]c1/C(=N/OC(C)C)c1ccccc1 [I-759] | < 10 µM
OCc1cnc2ccc(N3CCC[C@@H](Nc4cc(N5CCCCC5)ccn4)C3)nn12 [I-760] | > 200 µM
O=CNc1ccc(N2CCC[C@@H]3[C@H]2CCN3c2cc(N3CCCCC3)ccn2)cc1F [I-761] | > 200 µM
O=CNc1ccc(N2CCC[C@H]3[C@@H]2CCN3c2cc(N3CCCCC3)ccn2)cc1F [I-762] | > 200 µM
Cc1cn2cc(N3CCC[C@@H](Nc4cc(N5CCOCC5)ccn4)C3)ccc2n1 [I-763] | 10 to 100 µM
Cc1cc2nccn2cc1N1CCC[C@@H](Nc2cc(N3CCOCC3)ccn2)C1 [I-765] | > 200 µM
CCOC(=O)Cc1ccncc1N1CCC[C@@H](Nc2cc(N3CCOCC3)ccn2)C1 [I-766] | 10 to 100 µM
CS(=O)(=O)CCC(=O)N1CCC[C@@H](Nc2cc(N3CCOCC3)ccn2)C1 [I-767] | > 200 µM
CS(=O)(=O)CCCC(=O)N1CCC[C@@H](Nc2cc(N3CCOCC3)ccn2)C1 [I-768] | > 200 µM
NC(=O)c1ccc(N2CCC[C@@H](Nc3cc(N4CCOCC4)ccn3)C2)cc1 [I-769] | > 200 µM
N#Cc1ccccc1N1CCC[C@@H](Nc2cc(N3CCOCC3)ccn2)C1 [I-770] | 10 to 100 µM
N#Cc1cccc(N2CCC[C@@H](Nc3cc(N4CCOCC4)ccn3)C2)c1 [I-771] | > 200 µM
O[C@@H](c1cccc(N2CCC[C@@H](Nc3cc(N4CCOCC4)ccn3)C2)c1)C(F)(F)F [I-772] | 10 to 100 µM
Cn1cncc1N1CCC[C@@H](Nc2cc(N3CCOCC3)ccn2)C1 [I-773] | 10 to 100 µM
N#Cc1ccc(N2CCC[C@@H](Nc3cc(N4CCOCC4)ccn3)C2)cc1 [I-774] | > 200 µM
NC(=O)c1cccc(N2CCC[C@@H](Nc3cc(N4CCOCC4)ccn3)C2)c1 [I-775] | > 200 µM
NC(=O)Cc1cccc(N2CCC[C@@H](Nc3cc(N4CCOCC4)ccn3)C2)c1 [I-776] | > 200 µM
NC(=O)CCc1cccc(N2CCC[C@@H](Nc3cc(N4CCOCC4)ccn3)C2)c1 [I-777] | 10 to 100 µM
O=C1NCCc2c1cccc2N1CCC[C@@H](Nc2cc(N3CCOCC3)ccn2)C1 [I-778] | > 200 µM
COC(=O)c1cc(N2CCC[C@@H](Nc3cc(N4CCOCC4)ccn3)C2)cc2c1OCO2 [I-779] | > 200 µM

Compound | Kd
Oc1ccc2nc(N3CCC[C@@H](Nc4cc(N5CCOCC5)ccn4)C3)ccc2c1 [I-780] | 10 to 100 µM
COC(=O)c1nc(N2CCC[C@@H](Nc3cc(N4CCOCC4)ccn3)C2)ccc1C [I-781] | 10 to 100 µM
CCOC(=O)Cc1ccc(N2CCC[C@@H](Nc3cc(N4CCOCC4)ccn3)C2)cn1 [I-782] | > 200 µM
CN(C)CC[C@H](c1ccc(N2CCC[C@@H](Nc3cc(N4CCOCC4)ccn3)C2)cc1)c1ccccn1 [I-783] | > 200 µM
CN(C)C(=O)c1cccnc1N1CCC[C@@H](Nc2cc(N3CCOCC3)ccn2)C1 [I-784] | > 200 µM
COC(=O)c1cc(-c2cccc(N3CCC[C@@H](Nc4cc(N5CCOCC5)ccn4)C3)c2)on1 [I-785] | > 200 µM
c1cc(N2CCOCC2)cc(N[C@@H]2CCCN(c3ccc(CN4CCOCC4)cn3)C2)n1 [I-786] | 10 to 100 µM
O=C(N[C@@H](CC(=O)N1CCNCC1)c1cccc(Cl)c1)c1cn[nH]c1-c1ccccc1F [I-787] | < 10 µM
C[C@H]1CCCCN1c1ccnc2c1CCN2C1CCCN(c2cccc(F)c2)C1 (some centres unmarked) [I-788] | < 10 µM
Fc1cccc(N2CCCC(N3CCc4c(N5CCCCC5)ccnc43)C2)c1 (centres unmarked) [I-789] | < 10 µM
Fc1cccc(N2CCCC(N3CCc4c(N5CC6CC(C6)C5)ccnc43)C2)c1 (centres unmarked) [I-790] | < 10 µM
NCCOCCOCCOCCOCCCc1ccc(C(=O)c2[nH]cc(C(=O)N[C@@H](CC(N)=O)c3cccc(Cl)c3)c2-c2c(F)ccc(F)c2F)cc1 [I-791] | < 10 µM
Cc1c(F)ccc(F)c1-c1c(C(=O)N[C@@H](CC(N)=O)c2cccc(Cl)c2)c[nH]c1C(=O)c1cccc(O)c1 [I-792] | < 10 µM
NC(=O)C[C@H](NC(=O)c1cn[nH]c1-c1c(F)ccc(F)c1C(F)(F)F)c1cccc(Cl)c1 [I-793] | < 10 µM
O[C@@H]1CCCN(c2ccnc(N3CC[C@@H]4[C@H]3CCCN4c3cccc(F)c3)c2)C1 [I-794] | < 10 µM
COc1cccc(C(=O)c2[nH]cc(C(=O)N[C@@H](CC(N)=O)c3cccc(Cl)c3)c2-c2c(F)ccc(F)c2C)c1 [I-795] | < 10 µM
COc1ccc(F)cc1N1CCC[C@@H]2[C@H]1CCN2c1cc(N2CCCCC2)ccn1 [I-796] | 10 to 100 µM
O[C@H]1CCCN(c2ccnc(N3CC[C@H]4[C@@H]3CCCN4c3cccc(F)c3)c2)C1 [I-797] | 10 to 100 µM
Cc1c(F)ccc(F)c1-c1c(C(=O)N[C@@H](CC(N)=O)c2cccc(Cl)c2)c[nH]c1C#N [I-798] | < 10 µM
O[C@@H]1CCCN(c2ccnc(N3CC[C@H]4[C@@H]3CCCN4c3cccc(F)c3)c2)C1 [I-799] | > 200 µM
O[C@H]1CCCN(c2ccnc(N3CC[C@@H]4[C@H]3CCCN4c3cccc(F)c3)c2)C1 [I-800] | < 10 µM
Cc1cccc(F)c1-c1c(C(=O)N[C@@H](CC(N)=O)c2cccc(Cl)c2)c[nH]c1C(=O)c1ccc(N2CCCCC2)cc1 [I-801] | < 10 µM
Cc1c(F)ccc(F)c1-c1c(C(=O)N[C@@H](CC(N)=O)c2cccc(Cl)c2)c[nH]c1C(=O)COCCOCCOCCOCCOCCOCCN [I-802] | < 10 µM
C=CC(=O)NCCOCC1CCN(c2ccnc(N[C@@H]3CCCN(c4cccc(F)c4)C3)c2)CC1 [I-803] | 10 to 100 µM
OC1(C2CCCCC2)CCC[C@@H](Nc2cc(N3CCCCC3)ccn2)C1 (some centres unmarked) [I-804] | 10 to 100 µM
Cc1c(F)ccc(F)c1-c1c(C(=O)N[C@@H](CC(N)=O)c2cccc(Cl)c2)c[nH]c1C(=O)c1ccc(CCCOCCOCCOCCOCCOCCN)cc1 [I-805] | < 10 µM
Cc1c(F)ccc(F)c1-c1c(C(=O)N[C@@H](CC(N)=O)c2cccc(Cl)c2)c[nH]c1C(=O)c1ccc(CCCOCCOCCOCCN)cc1 [I-806] | < 10 µM

Compound | Kd
CN(CCN)C(=O)C[C@H](NC(=O)c1cn[nH]c1-c1ccccc1F)c1cccc(Cl)c1 [I-807] | < 10 µM
Fc1cccc(N2CCC[C@@H](N3CCCc4c(N5CCCCC5)ccnc43)C2)c1 [I-808] | > 200 µM
Cc1c(F)ccc(F)c1-c1c(C(=O)N[C@@H](CC(N)=O)c2cccc(Cl)c2)c[nH]c1C(=O)COCCOCCOCCOCCOCCN [I-809] | < 10 µM
COc1ccc(C(=O)c2[nH]cc(C(=O)N[C@@H](CC(N)=O)c3cccc(Cl)c3)c2-c2c(F)ccc(F)c2C)cc1 [I-810] | < 10 µM
Nc1ccc(F)cc1N1CCC[C@@H]2[C@H]1CCN2c1cc(N2CCCCC2)ccn1 [I-811] | < 10 µM
Oc1ccc(F)cc1N1CCC[C@@H]2[C@H]1CCN2c1cc(N2CCCCC2)ccn1 [I-812] | 10 to 100 µM
Oc1ccc(F)cc1N1CCC[C@H]2[C@@H]1CCN2c1cc(N2CCCCC2)ccn1 [I-813] | 10 to 100 µM
NC(=O)CC(Cc1ccccc1)NC(=O)c1cn[nH]c1-c1cc(F)ccc1F (centres unmarked) [I-814] | 10 to 100 µM
CN1CCN(CC2CCN(c3ccnc(N4CC[C@@H]5[C@H]4CCCN5c4cccc(F)c4)c3)CC2)CC1 [I-815] | < 10 µM
CN1CCN(CCC2CCN(c3ccnc(N4CC[C@@H]5[C@H]4CCCN5c4cccc(F)c4)c3)CC2)CC1 [I-816] | < 10 µM
Cc1ccc(S(=O)(=O)c2[nH]cc(C(=O)N[C@@H](CC(N)=O)c3cccc(Cl)c3)c2-c2c(F)ccc(F)c2C)cc1 [I-817] | < 10 µM
Cc1c(F)ccc(F)c1-c1[nH]ncc1C(=O)N[C@H](CC(N)=O)c1ccc(F)c(Cl)c1 [I-818] | < 10 µM
Cc1c(F)ccc(F)c1-c1[nH]ncc1C(=O)N[C@@H](CC(N)=O)c1ccc(F)c(Cl)c1 [I-819] | 10 to 100 µM
CNC(=O)C[C@H](NC(=O)c1c[nH]c(C(=O)COCCOCCOCCOCCOCCN)c1-c1c(F)ccc(F)c1C)c1cccc(Cl)c1 [I-820] | < 10 µM
OCCC[C@@H]1C[C@@H]2[C@@H](CCCN2c2cccc(F)c2)N1c1cc(N2CCCCC2)ccn1 [I-821] | > 200 µM
Cc1c(F)ccc(F)c1-c1c(C(=O)N[C@@H](CC(=O)N(C)C)c2cccc(Cl)c2)c[nH]c1C(=O)COCCOCCOCCOCCOCCN [I-822] | < 10 µM
C[C@H]1CC[C@H](O)CN1c1ccnc(N2CC[C@@H]3[C@H]2CCCN3c2cccc(F)c2)c1 [I-823] | < 10 µM
C[C@@H]1CC[C@H](O)CN1c1ccnc(N2CC[C@@H]3[C@H]2CCCN3c2cccc(F)c2)c1 [I-824] | < 10 µM
OCCC[C@H]1C[C@@H]2[C@@H](CCCN2c2cccc(F)c2)N1c1cc(N2CCCCC2)ccn1 [I-825] | 10 to 100 µM
OCCC[C@H]1C[C@@H]2[C@H](CCCN2c2cccc(F)c2)N1c1cc(N2CCCCC2)ccn1 [I-826] | 10 to 100 µM
COCCOCCC1CN(c2cc(N3CCOCC3)ccn2)[C@H]2CCCN(c3cccc(F)c3)[C@@H]12 (some centres unmarked) [I-827] | < 10 µM
COCCOCCC1CN(c2cc(N3CCOCC3)ccn2)[C@@H]2CCCN(c3cccc(F)c3)[C@H]12 (some centres unmarked) [I-828] | > 200 µM
OCCC[C@@H]1C[C@H]2[C@H](CCCN2c2cccc(F)c2)N1c1cc(N2CCCCC2)ccn1 [I-830] | 10 to 100 µM
OCCC[C@@H]1C[C@H]2[C@@H](CCCN2c2cccc(F)c2)N1c1cc(N2CCCCC2)ccn1 [I-831] | 10 to 100 µM
C[C@@H]1[C@H](O)CCCN1c1ccnc(N2CC[C@@H]3[C@H]2CCCN3c2cccc(F)c2)c1 [I-832] | < 10 µM
C[C@H]1[C@@H](O)CCCN1c1ccnc(N2CC[C@@H]3[C@H]2CCCN3c2cccc(F)c2)c1 [I-833] | < 10 µM
